Laboratory results taken from article PMC7673538 (PLoS Biology, 2020).
Several values for one entry are separate records, joined by “and”; a condition that tells them apart may be missing. Identical values can stand only once. Like-named read-outs stand apart in the source and are kept apart here.

Key:
HRV-A2 [1] = test: microbe, parasite or virus in culture; assay type: cell-based, human rhinovirus; settings: Human rhinovirus sp., HRVA2, HeLa R19, read-out: EC50 HRV-A2
in vitro [2] = settings: monkey
HRV-B14 [3] = test: microbe, parasite or virus in culture; assay type: cell-based, human rhinovirus; settings: Human rhinovirus sp.
EV-A71 = test: microbe, parasite or virus in culture; assay type: cell-based, enterovirus A71; settings: for EC50: Enterovirus A
CV-A24 (strain Joseph) = assay type: cell-based, coxsackievirus A24
[4] = tested on: representative EVs and RVs; assay type: cell-based
PV-1 = test: microbe, parasite or virus in culture; assay type: cell-based, poliovirus 1; settings: Enterovirus C
HRV-B14 [5] = assay type: cell-based, human rhinovirus
human SERT = molecular target: T1, human SERT (Homo sapiens, UniProt P31645); assay type: cell-based
T1 construct: expressed in transfected cells; host or cells: HEK293 (gift of Dr. Hoener, F. Hoffmann-La Roche)
T1 sequence (P31645 whole entry): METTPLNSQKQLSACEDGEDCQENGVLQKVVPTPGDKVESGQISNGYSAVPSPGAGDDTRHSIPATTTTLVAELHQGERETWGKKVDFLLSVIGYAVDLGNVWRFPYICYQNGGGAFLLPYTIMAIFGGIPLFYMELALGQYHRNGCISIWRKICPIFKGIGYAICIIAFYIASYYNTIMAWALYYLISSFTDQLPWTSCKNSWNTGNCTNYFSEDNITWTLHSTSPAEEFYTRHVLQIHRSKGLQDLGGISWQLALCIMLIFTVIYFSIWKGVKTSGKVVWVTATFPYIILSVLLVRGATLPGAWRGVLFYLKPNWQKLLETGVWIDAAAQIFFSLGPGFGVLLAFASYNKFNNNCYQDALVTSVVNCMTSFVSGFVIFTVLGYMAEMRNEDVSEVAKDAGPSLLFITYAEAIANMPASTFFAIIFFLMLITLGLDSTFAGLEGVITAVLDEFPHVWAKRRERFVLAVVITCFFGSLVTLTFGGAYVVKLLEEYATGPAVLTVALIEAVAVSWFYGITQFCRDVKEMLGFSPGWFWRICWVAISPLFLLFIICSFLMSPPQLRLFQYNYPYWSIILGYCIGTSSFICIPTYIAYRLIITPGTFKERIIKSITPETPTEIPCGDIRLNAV

CV-A24v = test: microbe, parasite or virus in culture; assay type: cell-based, coxsackievirus A24v
human NET = molecular target: T2, human NET (Homo sapiens, UniProt P23975); assay type: cell-based; settings: for NET, Mean (Figure 8B): Control = 100; for NET, Mean as % (Figure 8B): Control = 100%
T2 construct: expressed in transfected cells; host or cells: HEK293 (gift of Dr. Hoener, F. Hoffmann-La Roche)
T2 sequence (P23975 whole entry): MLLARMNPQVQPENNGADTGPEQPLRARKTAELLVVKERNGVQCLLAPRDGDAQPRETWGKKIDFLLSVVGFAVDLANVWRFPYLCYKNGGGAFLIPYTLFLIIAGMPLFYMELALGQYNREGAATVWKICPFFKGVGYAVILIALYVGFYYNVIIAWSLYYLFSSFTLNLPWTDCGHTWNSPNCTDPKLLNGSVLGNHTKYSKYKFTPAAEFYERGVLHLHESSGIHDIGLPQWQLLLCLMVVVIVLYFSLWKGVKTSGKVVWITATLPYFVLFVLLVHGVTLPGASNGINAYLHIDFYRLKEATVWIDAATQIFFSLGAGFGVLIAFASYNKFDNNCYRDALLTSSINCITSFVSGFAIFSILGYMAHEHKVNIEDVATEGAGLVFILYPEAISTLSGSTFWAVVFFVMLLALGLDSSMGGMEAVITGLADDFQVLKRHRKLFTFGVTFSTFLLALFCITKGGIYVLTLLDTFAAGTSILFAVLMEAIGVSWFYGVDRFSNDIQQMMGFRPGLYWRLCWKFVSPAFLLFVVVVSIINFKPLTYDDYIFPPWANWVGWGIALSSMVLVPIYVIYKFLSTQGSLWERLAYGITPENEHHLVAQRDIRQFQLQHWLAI

CV-B3 [6] = test: microbe, parasite or virus in culture; assay type: cell-based, coxsackievirus B3; settings: Enterovirus B
in vitro [7] = settings: human
CV-B3 [8] = test: microbe, parasite or virus in culture; assay type: cell-based, coxsackievirus B3; settings: for EC50: Enterovirus B
HRV-A2 [9] = assay type: cell-based, human rhinovirus
EV-D68 (strain Fermon) = assay type: cell-based, enterovirus D68
CV-B3 [10] = test: microbe, parasite or virus in culture; assay type: cell-based, coxsackievirus B3; settings: Enterovirus B, CVB3, BGM
in vitro [11] = settings: human; remark: listed apart in the source

O=C(c1ccco1)N(Cc1ccc(C(F)(F)F)cc1)c1ccccc1 [Compound 19d, N-phenyl-N-(4-(trifluoromethyl)benzyl)furan-2-carboxamide]
EC50 (HRV-A2 [1]): 15.2 ± 1.13 µM
CC50 (in vitro [2]; CC50): 92.6 ± 1.51 µM
CC50 (in vitro [2]; CC50 BGM Average): 92.6 µM
CC50 (in vitro [2]; Exp 1 CC50 BGM): 91.1 µM
CC50 (in vitro [2]; Exp 2 CC50 BGM): 94.1 µM
EC50 (HRV-B14 [3]; HRVB14, HeLa R19, read-out: EC50 Exp1): 4.76 µM
EC50 (HRV-B14 [3]; HRVB14, HeLa R19, read-out: EC50 Exp2): 3.61 µM
EC50 (HRV-B14 [3]; HRVB14, HeLa R19, read-out: EC50 HRV-B14): 4.19 ± 0.58 µM
resistance of reverse-engineered EV-A71 2C M193L (in words) (EV-A71): conferred 19d resistance
resistance of reverse-engineered EV-A71 2C M193L/R151H (in words) (EV-A71): further increased the resistance
resistance of reverse-engineered EV-A71 2C M193L/R151H/T133S (in words) (EV-A71): slightly further increased resistance
resistance of reverse-engineered EV-A71 2C R151H (in words) (EV-A71): did not confer resistance
multicycle replication assay read-out, EV-A71(BrCr) (EV-A71; 0.2344 µM): 5.8952 and 4.978 and 5.24
multicycle replication assay read-out, EV-A71(BrCr) (EV-A71; 0.4688 µM): 6.681 and 6.55 and 6.0262
multicycle replication assay read-out, EV-A71(BrCr) (EV-A71; 1.875 µM): 102.314 and 101.266 and 100.218
multicycle replication assay read-out, EV-A71(BrCr) (EV-A71; 3.75 µM): 101.266 and 99.5633 and 96.5502
multicycle replication assay read-out, EV-A71(BrCr) (EV-A71; 7.5 µM): 100.48 and 99.0393 and 95.2402
multicycle replication assay read-out, EV-A71(BrCr) (EV-A71; 15 µM): 94.1921 and 92.2271 and 88.5589
multicycle replication assay read-out, EV-A71(BrCr) (EV-A71; 30 µM): 98.1223 and 94.4541 and 90.524
EC50 (EV-A71; EVA71, HeLa R19, read-out: EC50 Average): 1.29 µM
EC50 (EV-A71; EVA71, HeLa R19, read-out: EC50 EV-A71): 0.27 ± 0.12 µM
EC50 (EV-A71; EVA71, HeLa R19, read-out: EC50 EV-A71 strain BrCr): 1.68 ± 0.62 µM
EC50 (EV-A71; EVA71, HeLa R19, read-out: EC50 EV-A71 strain TW/2728/04): 2.33 ± 1.23 µM
EC50 (EV-A71; EVA71, HeLa R19, read-out: EC50 EV-A71 strain TW/2945/98): 2.9 ± 1.03 µM
EC50 (EV-A71; EVA71, HeLa R19, read-out: EC50 EV-A71 strain TW/70811/08): 0.754 ± 0.01 µM
EC50 (EV-A71; EVA71, HeLa R19, read-out: EC50 EV-A71 strain TW/72232/04): 2.54 ± 1.72 µM
EC50 (EV-A71; EVA71, HeLa R19, read-out: EC50 EV-A71 strain TW/96016/08): 1.94 ± 0.82 µM
virus titer, TCID50/ml (Figure 2A) (CV-A24 (strain Joseph); compound concentration 10 µM): 316.228 TCID50/ml
virus titer, TCID50/ml (Figure 2A) (CV-A24 (strain Joseph); compound concentration 30 µM): 316.228 TCID50/ml
virus titer, TCID50/ml (Figure 2A) (CV-A24 (strain Joseph); compound concentration 100 µM): 316.228 TCID50/ml
virus titer, TCID50/ml (Figure 2A) (CV-A24 (strain Joseph); compound concentration 150 µM): 316.228 TCID50/ml
inhibition of contemporary/clinical isolates of EV-A71, CV-A24v and EV-D68 (in words) [4]: inhibited all clinical isolates of EV-A71, CV-A24v, and EV-D68 tested
spectrum of antiviral activity (in words) [4]: inhibited all representative EVs and RVs
EC50 (PV-1; HeLa R19, read-out: EC50 Exp1): 21 µM
EC50 (PV-1; HeLa R19, read-out: EC50 Exp2): 22.1 µM
EC50 (PV-1; HeLa R19, read-out: EC50 PV-1): 21.5 ± 0.54 µM
virus titer, TCID50/ml (Figure 2A) (HRV-B14 [5]; compound concentration 0.001 µM): 13548130 TCID50/ml and 11698240 TCID50/ml
virus titer, TCID50/ml (Figure 2A) (HRV-B14 [5]; compound concentration 0.01 µM): 16982410 TCID50/ml and 30000000 TCID50/ml and 31612280 TCID50/ml
virus titer, TCID50/ml (Figure 2A) (HRV-B14 [5]; compound concentration 0.1 µM): 13548130 TCID50/ml and 11698240 TCID50/ml
virus titer, TCID50/ml (Figure 2A) (HRV-B14 [5]; compound concentration 0.3 µM): 13548130 TCID50/ml and 11698240 TCID50/ml
virus titer, TCID50/ml (Figure 2A) (HRV-B14 [5]; compound concentration 1 µM): 348134 TCID50/ml and 316228 TCID50/ml and 354813 TCID50/ml
SERT, Mean (Figure 8B) (human SERT; 1µM, Control = 100.00): 104.62
SERT, Mean as % (Figure 8B) (human SERT; 1µM, Control = 100%): 105%
SERT, Mean (Figure 8B) (human SERT; 100µM): 107.21
SERT, Mean as % (Figure 8B) (human SERT; 100µM): 107%
inhibition of SERT-mediated uptake (in words) (human SERT; HEK293 cells expressing human SERT, 1 and 100 μM): neither 12a, 19b, 19d, nor the combined compound 12b inhibited
EC50 (CV-A24v; Coxsackievirus, HeLa R19, read-out: EC50 Average): 18.6 µM
EC50 (CV-A24v; Coxsackievirus, HeLa R19, read-out: EC50 CV-A24v strain 110386): 15.7 ± 1.32 µM
EC50 (CV-A24v; Coxsackievirus, HeLa R19, read-out: EC50 CV-A24v strain 110389): 18.6 ± 0.44 µM
EC50 (CV-A24v; Coxsackievirus, HeLa R19, read-out: EC50 CV-A24v strain 110390): 16.8 ± 0.33 µM
EC50 (CV-A24v; Coxsackievirus, HeLa R19, read-out: EC50 CV-A24v strain 110392): 19.1 ± 0.97 µM
EC50 (CV-A24v; Coxsackievirus, HeLa R19, read-out: EC50 Exp1): 17 µM
EC50 (CV-A24v; Coxsackievirus, HeLa R19, read-out: EC50 Exp2): 14.3 µM
EC50 (CV-A24v; read-out: EC50 Average): 16.8 µM
EC50 (CV-A24v; read-out: EC50 Exp1): 18.1 µM and 17.1 µM and 20 µM
EC50 (CV-A24v; read-out: EC50 Exp2): 19 µM and 16.4 µM and 18.1 µM
cytotoxicity (in words) (HeLa R19 cells): very minimal cytotoxicity
NET, Mean (Figure 8B) (human NET; 1µM): 125.873
NET, Mean as % (Figure 8B) (human NET; 1µM): 126%
NET, Mean (Figure 8B) (human NET; 100µM): 118.011
NET, Mean as % (Figure 8B) (human NET; 100µM): 118%
inhibition of NET function (in words) (human NET; HEK293 cells expressing human NET, 1 μM or 100 μM): neither 12a, 19b, 19d, nor the combined compound 12b inhibited
EC50 (CV-B3 [6]; CVB3, HAP1, read-out: EC50 Hap1 Average): 0.75 µM
EC50 (CV-B3 [6]; CVB3, HAP1, read-out: Exp 1 EC50 Hap1): 0.69 µM
EC50 (CV-B3 [6]; CVB3, HAP1, read-out: Exp 2 EC50 Hap1): 0.8 µM
CC50 (in vitro [7]; CC50 Hap1 Average): 97.8 µM
CC50 (in vitro [7]; Exp 1 CC50 Hap1): 97.5 µM
CC50 (in vitro [7]; Exp 2 CC50 Hap1): 98.1 µM
effect of the substitution on antiviral activity against CV-B3 (in words) (CV-B3 [8]): only marginally affected antiviral activity
EC50 (CV-B3 [8]; CVB3, HeLa R19, […], read-out: EC50 Exp1): 7.98 µM
EC50 (CV-B3 [8]; CVB3, HeLa R19, read-out: CV-B3 EC50 Average): 0.79 µM
EC50 (CV-B3 [8]; CVB3, HeLa R19, read-out: CV-B3 Exp 1 EC50): 0.73 µM
EC50 (CV-B3 [8]; CVB3, HeLa R19, read-out: CV-B3 Exp2 EC50): 0.85 µM
EC50 (CV-B3 [8]; CVB3, HeLa R19, read-out: EC50 Exp1): 1.04 µM
EC50 (CV-B3 [8]; CVB3, HeLa R19, read-out: EC50 HelaR19 Average): 0.77 µM
EC50 (CV-B3 [8]; CVB3, HeLa R19, read-out: Exp 1 EC50 HelaR19): 0.91 µM
EC50 (CV-B3 [8]; CVB3, HeLa R19, read-out: Exp 2 EC50 HelaR19): 0.63 µM
EC50 (CV-B3 [8]; CVB3 / genotype 2c, HeLa R19, read-out: EC50 CV-B3 WT): 1.26 ± 0.15 µM
virus titer, TCID50/ml (Figure 2A) (HRV-A2 [9]; compound concentration 0.01 µM): 354813 TCID50/ml
virus titer, TCID50/ml (Figure 2A) (HRV-A2 [9]; compound concentration 1 µM): 169824 TCID50/ml and 188844 TCID50/ml
virus titer, TCID50/ml (Figure 2A) (HRV-A2 [9]; compound concentration 3 µM): 354813 TCID50/ml and 588844 TCID50/ml
virus titer, TCID50/ml (Figure 2A) (HRV-A2 [9]; compound concentration 30 µM): 1316.23 TCID50/ml and 1316 TCID50/ml
virus titer, TCID50/ml (Figure 2A) (EV-D68 (strain Fermon); compound concentration 0.01 µM): 6000000 TCID50/ml and 4677352 TCID50/ml and 3162278 TCID50/ml
virus titer, TCID50/ml (Figure 2A) (EV-D68 (strain Fermon); compound concentration 0.1 µM): 5888437 TCID50/ml and 6000000 TCID50/ml and 3162278 TCID50/ml
virus titer, TCID50/ml (Figure 2A) (EV-D68 (strain Fermon); compound concentration 0.3 µM): 6000000 TCID50/ml and 3548134 TCID50/ml
virus titer, TCID50/ml (Figure 2A) (EV-D68 (strain Fermon); compound concentration 10 µM): 31622.8 TCID50/ml and 21379.6 TCID50/ml and 35481.3 TCID50/ml
EC50 (CV-B3 [10]; read-out: EC50 BGM Average): 0.38 µM
EC50 (CV-B3 [10]; read-out: Exp 1 EC50 BGM): 0.44 µM
EC50 (CV-B3 [10]; read-out: Exp 2 EC50 BGM): 0.32 µM
CC50 (in vitro [11]; CC50 Average): > 30 µM
CC50 (in vitro [11]; CC50 HelaR19 Average): 93.7 µM
CC50 (in vitro [11]; Exp 1 CC50): > 30 µM
CC50 (in vitro [11]; Exp 1 CC50 HelaR19): 92.3 µM
CC50 (in vitro [11]; Exp2 CC50): > 30 µM
CC50 (in vitro [11]; Exp 2 CC50 HelaR19): 95 µM
